Test results published in US5641760A, “Method of treating candida infection” (Pence, Inc., priority 1994, dated 1997).

What was measured:
[1] = test system: Candida albicans fimbriae (binding to human BECs); test: Inhibition of fimbriae binding to human buccal epithelial cells (BECs); type: cell-based; details: fimbriae 50 μg preincubated with competitor 1 h at 37° C., 2.0×10^5 BECs
Procedure: The percent inhibition is the inhibition of binding in the presence of the competing antigens with respect to binding observed in the absence of any competitors.
The fimbrial adherence assay was performed using a Manifold filtration apparatus equipped with individual vacuum stopcocks (Model FH 225V, Hoefer Scientific Instruments). Polycarbonate filters, 12 μm pore size (Nucleopore Costar Corp.), were pre-incubated overnight at 4° C. with 50 ml of PBS pH 7.2, containing 0.45% (v/v) Tween 20. The pretreated filters were placed into each chamber and washed with 2.5 ml of PBS. 1 ml containing 2.0×10^5 BECs in PBS was added to each chamber. Enriched fimbriae (100 μl/chamber, ranging from 0 to 80 μg fimbriae protein/ml) in PBS containing 0.05% (v/v) Tween-20 was added to each chamber and incubated with the BECs for 1.5 hours at room temperature. Unbound fimbriae were removed with washes of 2.5 ml of PBS. Mouse anti-C. albicans fimbriae monoclonal antibody (ascites fluid diluted 1:3000 with PBS) was added to the BECs (1.2 ml/chamber) and incubated for 1.5 hour at room temperature. BECs were washed five times with 2.5 ml of PBS. Goat anti-mouse IgG(H+L)-peroxidase conjugates (Jackson Laboratories) diluted 1:5000 with PBS was added (1.0 ml/chamber) and incubated for another hour at room temperature. The cells were then washed seven times with 2.5 ml/chamber of PBS. The polycarbonate filters containing BECs were removed from the filtration manifold and placed into glass scintillation vials. The horseradish peroxidase substrate solution (ABTS) was added to each vial (1 ml/vial) and incubated for 30 min at room temperature on a shaker at 100 rpm. The reaction was stopped by the addition of 4 mM sodium azide (200 μl/vial). The substrate solution was pipetted into Eppendorf tubes and centrifuged at 5,000 g for 3 minutes. Aliquots of the supernatants were pipetted into microtiter wells (200 μl/well) and the resulting absorbance at 405 nm was recorded with a Titertek Multiskan Plus microplate recorder. […]

[2] = test system: Candida albicans strain #40 fimbriae (enriched fimbriae EF, 66 kDa fimbrial subunit/adhesin protein); test: Inhibition of fimbriae binding to immobilized βGalNAc(1-4)βGal-BSA conjugate; details: plates coated with 10 μg/ml conjugate
Procedure: Further experiments to determine the specificity of fimbrial binding to GSLs were carried out using a plate binding assay, as described above, but immobilizing on the plates a βGalNAc(1-4)βGal-BSA conjugate, synthesized from βGalNAc(1-4)βGal-O(CH2)8 COOCH3 (Sabesan and Lemieux), as described in Part B, above. The coupling ratio of disaccharide: BSA was 12:1. The protocol utilized for this assay was similar to that employed for the assessment of C. albicans fimbriae binding to GSLs except that the plates were coated with 100 μl/well of a 10 μg/ml solution of synthetic βGalNAc(1-4)βGal-BSA conjugate in 0.01M carbonate buffer, pH 9.5.
Using this assay, it was first determined that fimbriae bind to the βGalNAc(1-4)βGal-BSA conjugate in a saturable, concentration-dependent manner. FIGS. 12A and 12B show the results of experiments in which compounds were tested for ability to inhibit binding of fimbriae to the βGalNAc(1-4)βGal-BSA conjugate. The protocol used in this assay was similar to the one used in the GSL inhibition assay described above, except that the plates were coated with 100 μl/well of a 10 μg/ml solution of synthetic βGalNAc(1-4)βGal-BSA conjugate in 0.01M carbonate buffer, pH 9.5. As depicted in FIG. 12A, βGalNAc(1-4)βGal-methylester ("GalNAcGal") was able to inhibit binding to the GalNAcGal-BSA conjugate in a concentration dependent manner. […]

Question: Which results are given for “gangliotetraosylceramide: βGal(1-3)βGalNAc(1-4)βGal(1-4)βGlc(1-1)Cer [asialo-GM1]”?
Answer: Inhibition of C. albicans fimbriae binding to BECs ([1]; competitor concentration not stated): 80%; Concentration required for half-maximal inhibition of fimbriae binding to βGalNAc(1-4)βGal-BSA conjugate [2]: 7.5 µg/mL

Question: With “ceramide trihexoside [CTH, ceramide trihexoside [aGal(1-4)βGal(1-4)βGlc(1-1)Cer]]” as the substance, how does the “Inhibition of C. albicans fimbriae binding to BECs” value [1] read?
Answer: Its value is “failed to inhibit”.
